{"source": "patent US4542153A", "about": "“Methods for changing calcium metabolism within the cells of a mammal” (The Ohio State University Research Foundation, priority 1983, dated 1985)", "key": {"[1]": {"system": "thoracic aorta strips contracted with potassium chloride", "assay": "Vasodilator activity: potassium chloride-contracted aortic strips", "format": "cell-based, male Sprague-Dawley rats", "details": "for IC50: read-out: IC50 (mean and range of SEM) KCl; for comparative vasodilator activity, potassium chloride-treated tissue: KCl-treated aortic tissue", "from_the_text": "(§1) Pr-MDI, bu-MDI, Q-bu-MDI and the compounds of Formulae IIIA, IIIB and IVA having the two R1 groups together forming a methylene group, each R3 a methyl group and R2 an n-propyl group or n-butyl group (the compounds of Formula III are hereinafter abbreviated as sat-pr-MDI and sat-bu-MDI respectively, reference being made where necessary to the cis isomer of Formula III A or the trans isomer of Formula III B while the compounds of Formula IV are similarly referred to as cis sat-Q-pr-MDI and cis sat-Q-bu-MDI) were tested for vasodilator activity by the method of R. F. Furchgott and S. Bhadrakom, J. P. Pharmacol. Ex. Ther., 108, 129-143 (1953).\n(§2) The vasodilator activity tests were conducted on male Sprague-Dawley rats, obtained from Harlan Industries, Inc., Cumberland, Indiana. The rats, weight 250-300 g., were sacrified by cervical dislocation and a 2.5 cm. segment of the thoracic aorta was removed and rinshed in physiological buffer. Each aortic segment was cleaned of connective tissue and cut spirally two yield to strips, each 3 by 15 mm. Each strip was mounted isometrically under a tension of 1 g in a 10 ml. tissue bath thermostatically maintained at 37° C. and containing a normal physiological solution aerated with a 95% oxygen/5% carbon dioxide mixture. Forces generated by the strip were monitored using a Grass FT03 isometric transducer coupled to a Grass module 7D polygraph recorder, both the transducer and the recorder being obtained from Grass Instrument Co., of Quincy, Mass.\n(§3) After the aortic tissue had been allowed to equilibriate for 1-1.5 hours in the normal physiologic solution, tissue contraction was induced by introducing either 10^-7 M norepinephrine or 40mM potassium chloride buffer to the tissue bath.\n(§4) To avoid interference by loss of tension due to time dependent tissue fatigue, separate preliminary experiments were performed to determine the degree of tissue relaxation due to such fatigue and the value of the control tension generated by norepinephrine or potassium chloride prior to the addition of the test compounds was adjusted whenever the duration of the experiment was such that fatigue could be expected to cause more than a 6% loss of tension. […] All concentrations mentioned hereinafter represent the final concentration of the test compound after dilution in the tissue bath.\n(§5) The figures of concentration against percent response data obtained from each aortic tissue were transformed to its appropriate probit value and IC50 values were then estimated using linear regression analysis. The normal physiological solution contained 6.9 g/l of sodium chloride, 0.35 g/l of potassium chloride, 0.11 g/l of magnesium chloride hexahydrate, 0.138 g/l of sodium dihydrogen phosphate, 2.1 g/l of sodium bicarbonate, 0.01 g/l of EDTA, 0.368 g/l of calcium chloride dihydrate and 2.0 g/l of dextrose. The high potassium buffers were obtained by substituting potassium chloride for sodium chloride on an equimolar basis to maintain tonicity."}, "[2]": {"system": "thoracic aorta strips contracted with norepinephrine", "assay": "Vasodilator activity: norepinephrine-contracted aortic strips", "format": "cell-based, male Sprague-Dawley rats", "details": "for IC50: read-out: IC50 (mean and range of SEM) Norepinephrine; for comparative vasodilator activity, norepinephrine-treated tissue: norepinephrine-treated aortic tissue", "from_the_text": "as §1, §2, §3, §4, §5"}, "[3]": {"system": "calcium-induced arrhythmias in rats", "assay": "Calcium-induced arrhythmias (CaCl2 injected i.v. into anesthetized rats)", "details": "8 mg/kg (minimum effective concentration)", "from_the_text": "The experimental method used was that described in Lynch J. J., Rahwan R. G., Witiak D. T.: Effects of 2-substituted-3-dimethylamino-5,6-methylenedioxyindenes on calcium-inducedarrhythmias, J. Cardiovasc. Pharmacol. 3: 49-60 (1981). Male Sprague-Dawley rats weighing 180-250 grams were anesthetized with sodium pentobarbital and a cannula was inserted into the left jugular vein for drug administration. Electrocardiograph equipment was connected to the rat and the lead II was continuously monitored. The compound under test, dissolved in 5% dextrose solution, was administered into the jugular vein of anesthetized rats over a 40 second period. Ten minutes after this treatment, an acute dose of 1 ml/kg of a 10% CaCl2.2H2 O solution was injected into the jugular vein over a period of 10 seconds. The arrhythmias resulting from the calcium administration were graded according to the following criteria: (a) initial change in heart rate following calcium administration; (b) incidences of sinoatrial block, atrioventricular block, ectopic beats, and ventricular flutter and fibrillation; (c) time required for reversion to control ECG; and (d) incidence of mortality."}, "[4]": {"system": "chloroform anoxia arrhythmia in mice", "assay": "Chloroform Anoxia Assay (chloroform-induced ventricular fibrillation)", "format": "in vivo, Female Swiss albino mice", "details": "Mus musculus, ip, 10 min, i.p., 10 min before chloroform, table: mean values and 95% confidence limits, n = 40, read-out: ED50", "procedure": "The same four compounds were tested for their ability to protect mice from chloroform anoxia by the classical chloroform inhalation procedure described in Lawson J. W.: Antiarrhythmic activity of some isoquinoline derivatives determined by a rapid screening procedure in the mouse, J. Pharmacol. Exp. Ther. 160: 22-31, (1968). In this method, chloroform inhalation leading to respiratory arrest produces ventricular fibrillation. Female Swiss albino mice procured from Laboratory Supply Company, Indianapolis, Indiana, weighing 16-22 g, were pretreated intraperitoneally with the compound under test dissolved in a 5% dextrose solution 10 minutes before exposure to chloroform in a closed container containing chloroform-saturated cotton. The mice were removed from the chloroform atmosphere immediately after respiratory arrest and the electrocardiograph lead II monitored. The ED 50 and 95% confidence limits calculated for the anti-arrhythmic agents by the standard method of Litchfield and Wilcoxon."}, "[5]": {"details": "rat aorta contracted with 10^-7 M norepinephrine"}, "[6]": {"details": "rat aorta contracted with 40 mM potassium chloride"}}, "note": "Where two headings read alike, the source gives them in different places."}
{"compound": "[Cl-].[K+]", "note": "[potassium chloride, reference compound]", "values": [{"measurement": "control tension as percent of the maximum inducible contraction", "setting": "[1]; 40 mM potassium chloride", "result": 84.2, "unit": "%"}, {"measurement": "control tension generated", "setting": "[1]; 40 mM potassium chloride, rat aortic strip", "result": "0.89 ± 0.05", "unit": "g"}]}
{"compound": "CCCC[C@@H]1Cc2cc3c(cc2[C@@H]1[N+](C)(C)C)OCO3", "note": "(relative stereo) [cis sat-Q-bu-MDI]", "values": [{"measurement": "IC50", "setting": "[2]; [5]", "result": 281, "unit": "µM"}, {"measurement": "IC50", "setting": "[1]; [6]", "result": 175, "unit": "µM"}]}
{"compound": "CCCC1=Cc2cc3c(cc2C1[N+](C)(C)C)OCO3.[I-]", "note": "(centres unmarked) [Q-pr-MDI, 2-propyl-5,6-methylenedioxyindene-1-trimethylammonium iodide]", "values": [{"measurement": "relaxation of the aortic tissue", "setting": "[2]; norepinephrine- or KCl-treated tissue", "result": "relaxed the aortic tissue"}, {"measurement": "comparative vasodilator activity, norepinephrine-treated tissue", "setting": "[2]", "result": "less active in vitro than their tertiary analogs"}, {"measurement": "IC50", "setting": "[2]; [5]", "result": 382, "unit": "µM"}, {"measurement": "IC50", "setting": "[1]; [6]", "result": 547, "unit": "µM"}]}
{"compound": "CCCC[C@H]1Cc2cc3c(cc2[C@@H]1N(C)C)OCO3", "note": "(relative stereo) [trans sat-bu-MDI]", "values": [{"measurement": "IC50", "setting": "[2]; Rattus norvegicus", "result": "151 to 173", "unit": "µM"}, {"measurement": "IC50", "setting": "[1]; Rattus norvegicus", "result": 31.1, "unit": "µM"}]}
{"compound": "NC[C@H](O)c1ccc(O)c(O)c1", "note": "[norepinephrine, reference compound]", "values": [{"measurement": "control tension as percent of the maximum inducible contraction", "setting": "[2]; 10^-7 M norepinephrine", "result": 85.1, "unit": "%"}, {"measurement": "control tension generated", "setting": "[2]; 10^-7 M norepinephrine, rat aortic strip", "result": "0.98 ± 0.03", "unit": "g"}]}
{"compound": "CCC[C@H]1Cc2cc3c(cc2[C@@H]1N(C)C)OCO3", "note": "(relative stereo) [trans sat-pr-MDI, 2-propyl-5,6-methylenedioxyindane-1-dimethylammonium chloride]", "values": [{"measurement": "IC50", "setting": "[2]; Rattus norvegicus", "result": 383, "unit": "µM"}, {"measurement": "IC50", "setting": "[1]; Rattus norvegicus", "result": 98.9, "unit": "µM"}]}
{"compound": "CCCC[C@@H]1Cc2cc3c(cc2[C@@H]1N(C)C)OCO3", "note": "(relative stereo) [cis sat-bu-MDI, 2-butyl-5,6-methylenedioxyindane-1-dimethylammonium chloride]", "values": [{"measurement": "IC50", "setting": "[2]; Rattus norvegicus", "result": 37.9, "unit": "µM"}, {"measurement": "comparative vasodilator activity, norepinephrine-treated tissue", "setting": "[2]", "result": "greater activity on norepinephrine treated tissue than the corresponding butyl compound of Formula I"}, {"measurement": "comparative vasodilator activity, potassium chloride-treated tissue", "setting": "[1]", "result": "substantially the same activity"}, {"measurement": "IC50", "setting": "[1]; Rattus norvegicus", "result": 17.4, "unit": "µM"}]}
{"compound": "C=C[C@H]1C[N@@]2CC[C@H]1C[C@@H]2[C@@H](O)c1ccnc2ccc(OC)cc12", "note": "[quinidine, reference compound]", "values": [{"measurement": "effect on the S wave", "setting": "[3]", "result": "severely deepened the S wave"}, {"measurement": "ED50", "setting": "[4]", "result": 67, "unit": "mg/kg"}]}
{"compound": "CCC[C@@H]1Cc2cc3c(cc2[C@@H]1N(C)C)OCO3", "note": "(relative stereo) [cis sat-pr-MDI, 2-propyl-5,6-methylenedioxyindane-1-dimethylammonium chloride]", "values": [{"measurement": "IC50", "setting": "[2]; Rattus norvegicus", "result": 59.4, "unit": "µM"}, {"measurement": "comparative vasodilator activity, norepinephrine-treated tissue", "setting": "[2]", "result": "substantially the same activity as the corresponding unsaturated propyl compound of Formula I"}, {"measurement": "comparative vasodilator activity, potassium chloride-treated tissue", "setting": "[1]", "result": "slightly lower activity"}, {"measurement": "IC50", "setting": "[1]; Rattus norvegicus", "result": 30, "unit": "µM"}]}
{"compound": "CCC[C@@H]1Cc2cc3c(cc2[C@@H]1[N+](C)(C)C)OCO3", "note": "(relative stereo) [cis sat-Q-pr-MDI, cis-2-propyl-5,6-methylenedioxyindane-1-trimethylammonium iodide]", "values": [{"measurement": "IC50", "setting": "[2]; [5]", "result": 1020, "unit": "µM"}, {"measurement": "IC50", "setting": "[1]; [6]", "result": 871, "unit": "µM"}]}
